The test addresses T1, 11β-HSD1 (Homo sapiens, UniProt P28845).
T1 construct: detecting cortisol generated from cortisterone by human liver microsomes; from tissue; host or cells: human liver microsomes
Briefly: In vitro inhibition of 11β-HSD1, HTRF detection of cortisol generated from cortisone by human liver microsomes. It counts as biochemical. The following applies: 1 hour at 37° C., pH 6.0, NADPH 200 μM, cortisone 80 nM, inhibition relative to carbenoxolone signal. Summed up: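 Cortisol formed from cortisone by human liver microsomes quantified by competitive HTRF immunoassay (XL665-cortisol, Eu-cryptate anti-cortisol antibody), 2 h detection, Em665/Em615 ratio converted via cortisol calibration curve. Percent inhibition relative to carbenoxolone signal; IC50 from curves.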

Molecules are shown by their SMILES. Where two headings read alike, the source gives them in different places.

T1 sequence (P28845 whole entry): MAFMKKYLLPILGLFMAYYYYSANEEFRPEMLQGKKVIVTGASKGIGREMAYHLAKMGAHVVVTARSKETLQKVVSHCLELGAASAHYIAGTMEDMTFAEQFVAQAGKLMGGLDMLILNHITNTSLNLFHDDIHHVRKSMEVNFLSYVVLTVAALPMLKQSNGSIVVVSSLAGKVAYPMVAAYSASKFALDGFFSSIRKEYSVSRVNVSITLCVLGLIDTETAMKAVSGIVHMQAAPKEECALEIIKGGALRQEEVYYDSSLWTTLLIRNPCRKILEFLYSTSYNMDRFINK

Regarding `Cc1nc2cc3c(cc2n1C)[C@]1(C)CCN(C(=O)c2ccc4nc[nH]c4c2)[C@H](C3)C1(C)C` [Example 242, (3H-Benzoimidazol-5-yl)-[(6R,10S)-5,6,7,8,9,10-hexahydro-1,2,10,12,12-pentamethyl-6,10-methano-imidazo[5,4-i][3]benzazocin-7-yl]-methanone], where the note is “11β-HSD IC50 (nM)”, the half-inhibitory concentration (IC50) worked out at 547 nM.
Still for that read-out and setting: the same measure for `Cc1nc2cc3c(cc2n1C)C[C@H]1N(C(=O)c2ccc4nc[nH]c4c2)CC[C@]3(C)C1(C)C` [Example 243, (3H-Benzoimidazol-5-yl)-[(6R,10S)-5,6,7,8,9,10-hexahydro-2,3,10,12,12-pentamethyl-6,10-methano-imidazo[4,5-i][3]benzazocin-7-yl]-methanone]: 113 nM.
With `O=C(c1ccc2nc[nH]c2c1)N1CCC2CC1Cc1c2[nH]c2ccccc12` (centres unmarked) [Example 245, (3H-Benzoimidazol-5-yl)-(2,3,4,5,6,7-hexahydro-2,6-methano-azocino[5,4-b]indol-3-yl)-methanone], for the setting “read-out: 11β-HSD IC50”, the IC50 is 257 nM.
In turn, `C[C@@H]1[C@@H]2Cc3ccc(O)cc3[C@@]1(C)CCN2C(=O)c1ccc2nc[nH]c2c1` [Example 246, (3H-Benzoimidazol-5-yl)-[(2S,6S,11S)-8-hydroxy-6,11-dimethyl-1,2,5,6-tetrahydro-4H-2,6-methano-benzo[d]azocin-3-yl)-methanone] came in with a half-maximal inhibitory concentration (IC50) (11β-HSD IC50 (nM)) of 637 nM.
The molecule `C[C@H]1[C@H]2Cc3ccc(O)cc3[C@]1(C)CCN2C(=O)c1ccc2nc[nH]c2c1` [Example 247, (3H-Benzoimidazol-5-yl)-[(2R,6R,11R)-8-hydroxy-6,11-dimethyl-1,2,5,6-tetrahydro-4H-2,6-methano-benzo[d]azocin-3-yl)-methanone] came in with an IC50 (11β-HSD IC50 (nM)) of 190 nM.
Same read-out and setting: the result for `Cc1ccc2[nH]cc(C(=O)N3CC[C@@]4(C)c5cccc(O)c5C[C@@H]3C4(C)C)c2c1` [Example 248, [(2R,6S)-10-Hydroxy-6,11,11-trimethyl-1,2,5,6-tetrahydro-4H-2,6-methano-benzo[d]azocin-3-yl)-(5-methyl-1H-indol-3-yl)-methanone] reads 1510 nM.
Still for that read-out and setting: the same measure for `C[C@@H]1[C@H]2Cc3ccc(-c4ccccc4)cc3[C@]1(C)CCN2C(=O)c1ccc2nc[nH]c2c1` [Example 249, (3H-Benzoimidazol-5-yl)-[(2R,6R,11S)-6,11-dimethyl-8-phenyl-1,2,5,6-tetrahydro-4H-2,6-methano-benzo[d]azocin-3-yl)-methanone]: 265 nM; for `C[C@@H]1[C@H]2Cc3ccc(-c4cccnc4)cc3[C@]1(C)CCN2C(=O)c1ccc2nc[nH]c2c1` [Example 250, (3H-Benzoimidazol-5-yl)-[(2R,6R,11S)-6,11-dimethyl-8-pyridin-3-yl-1,2,5,6-tetrahydro-4H-2,6-methano-benzo[d]azocin-3-yl]-methanone]: 53 nM; for `C[C@@H]1[C@H]2Cc3ccc(-c4ccncc4)cc3[C@]1(C)CCN2C(=O)c1ccc2nc[nH]c2c1` [Example 251, (3H-Benzoimidazol-5-yl)-[(2R,6R,11S)-6,11-dimethyl-8-pyridin-4-yl-1,2,5,6-tetrahydro-4H-2,6-methano-benzo[d]azocin-3-yl]-methanone]: 66 nM.
In turn, `C[C@@H]1[C@H]2Cc3ccc(-c4cncnc4)cc3[C@]1(C)CCN2C(=O)c1ccc2nc[nH]c2c1` [Example 252, (3H-Benzoimidazol-5-yl)-[(2R,6R,11S)-6,11-dimethyl-8-pyrimidin-5-yl-1,2,5,6-tetrahydro-4H-2,6-methano-benzo[d]azocin-3-yl]-methanone] gave an IC50 (11β-HSD IC50 (nM)) of 61 nM.
Where the note is “11β-HSD IC50 (nM)”, `Cc1cnc2cc3c(cc2n1)C[C@H]1N(C(=O)c2ccc4nc[nH]c4c2)CC[C@]3(C)C1(C)C` [Example 254, (3H-Benzoimidazol-5-yl)-[(7R,11S)-6,7,8,9,10,11-hexahydro-3,11,13,13-tetramethyl-7,11-methano-pyrazino[2,3-i][3]benzazocin-8-yl]-methanone] gave a concentration for half-maximal inhibition (IC50) of 742 nM.
